Experimental data as given in PMC3580017 (Journal of natural products, 2013).

Tested on: HT-29 human colon cancer cells
Assay: Cytotoxicity against HT-29 human colon cancer cells
Format: cell-based
Details: HT-29 versus CCD-112CoN

CCCC/C=C/C=C/C=C/[C@@H]1CC[C@@H](O)[C@H](C)N1C [Compound 1, (2S,3R,6S)-6-((1E,3E,5E)-deca-1,3,5-trien-1-yl)-1,2-dimethylpiperidin-3-ol]
selectivity ratio for cancerous colon cells versus normal colon cells: approximately 4
